PubChem BioAssay (NCI)
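Interpolation was linear, between the two tested concentrations surrounding the appropriate level; five concentrations were tested over 48 hours in 96-well plates. GI50: concentration for 50% inhibition of growth. TGI: total growth inhibition.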

Legend:
Test in all cases: inhibition of tumour cell growth, NCI panel, 48 h
NCI/ADR-RES ovarian = tested on: NCI/ADR-RES ovarian
DU-145 prostate = tested on: DU-145 prostate
HOP-62 NSCLC = tested on: HOP-62 NSCLC
RXF 393 renal = tested on: RXF 393 renal
T-47D breast = tested on: T-47D breast
UACC-62 melanoma = tested on: UACC-62 melanoma
SF-295 CNS = tested on: SF-295 CNS
786-0 renal = tested on: 786-0 renal
MDA-MB-231 breast = tested on: MDA-MB-231 breast
HT29 colon = tested on: HT29 colon
SW-620 colon = tested on: SW-620 colon
HCT-15 colon = tested on: HCT-15 colon
IGROV1 ovarian = tested on: IGROV1 ovarian
NCI-H522 lung = tested on: NCI-H522 lung
SK-MEL-5 melanoma = tested on: SK-MEL-5 melanoma
OVCAR-4 ovarian = tested on: OVCAR-4 ovarian
NCI-H23 lung = tested on: NCI-H23 lung
EKVX NSCLC = tested on: EKVX NSCLC
HL-60(TB) leukemia = tested on: HL-60(TB) leukemia
U251 CNS = tested on: U251 CNS
HCT-116 colon = tested on: HCT-116 colon
UO-31 renal = tested on: UO-31 renal
SNB-19 CNS = tested on: SNB-19 CNS
NCI-H460 lung = tested on: NCI-H460 lung
ACHN renal = tested on: ACHN renal
MDA-MB-435 = tested on: MDA-MB-435
K-562 leukemia = tested on: K-562 leukemia
A549 NSCLC = tested on: A549 NSCLC
M14 melanoma = tested on: M14 melanoma
SNB-75 CNS = tested on: SNB-75 CNS
A498 renal = tested on: A498 renal
NCI-H226 lung = tested on: NCI-H226 lung
SK-OV-3 ovarian = tested on: SK-OV-3 ovarian
SN12C renal = tested on: SN12C renal
SR leukemia = tested on: SR leukemia
HCC-2998 colon = tested on: HCC-2998 colon
OVCAR-3 ovarian = tested on: OVCAR-3 ovarian
LOX IMVI melanoma = tested on: LOX IMVI melanoma
MOLT-4 leukemia = tested on: MOLT-4 leukemia
TK-10 renal = tested on: TK-10 renal
BT-549 breast = tested on: BT-549 breast
PC-3 prostate = tested on: PC-3 prostate
SK-MEL-2 melanoma = tested on: SK-MEL-2 melanoma
MCF7 breast = tested on: MCF7 breast
COLO 205 colon = tested on: COLO 205 colon
SF-268 CNS = tested on: SF-268 CNS
KM12 colon = tested on: KM12 colon
RPMI-8226 leukemia = tested on: RPMI-8226 leukemia
CAKI-1 renal = tested on: CAKI-1 renal
MALME-3M melanoma = tested on: MALME-3M melanoma
OVCAR-5 ovarian = tested on: OVCAR-5 ovarian
HOP-92 NSCLC = tested on: HOP-92 NSCLC
SF-539 CNS = tested on: SF-539 CNS
HS 578T breast = tested on: HS 578T breast
SK-MEL-28 melanoma = tested on: SK-MEL-28 melanoma
OVCAR-8 ovarian = tested on: OVCAR-8 ovarian
UACC-257 melanoma = tested on: UACC-257 melanoma
CCRF-CEM leukemia = tested on: CCRF-CEM leukemia

Compound: Nc1nc(Sc2ccc([N+](=O)[O-])c3nonc23)c2ncn(C3OC(CO)C(O)C3O)c2n1 (stereo not given)
- GI50 (NCI/ADR-RES ovarian): 0.47 µM
- TGI (NCI/ADR-RES ovarian): > 73.2 µM
- GI50 (DU-145 prostate): 0.554 µM
- TGI (DU-145 prostate): 27.3 µM
- GI50 (HOP-62 NSCLC): 0.531 µM
- TGI (HOP-62 NSCLC): > 100 µM
- GI50 (RXF 393 renal): 10.4 µM
- TGI (RXF 393 renal): > 62.5 µM
- GI50 (T-47D breast): 1.07 µM
- TGI (T-47D breast): > 49.5 µM
- GI50 (UACC-62 melanoma): 0.478 µM
- TGI (UACC-62 melanoma): 3.59 µM
- GI50 (SF-295 CNS): 1.95 µM
- TGI (SF-295 CNS): > 100 µM
- GI50 (786-0 renal): 0.766 µM
- TGI (786-0 renal): 14.2 µM
- GI50 (MDA-MB-231 breast): 0.549 µM
- TGI (MDA-MB-231 breast): 14.8 µM
- GI50 (HT29 colon): 0.846 µM
- TGI (HT29 colon): 16.2 µM
- GI50 (SW-620 colon): 1.12 µM
- TGI (SW-620 colon): > 35 µM
- GI50 (HCT-15 colon): 0.587 µM
- TGI (HCT-15 colon): 11.9 µM
- GI50 (IGROV1 ovarian): 2.58 µM
- TGI (IGROV1 ovarian): 24.2 µM
- GI50 (NCI-H522 lung): 0.64 µM
- TGI (NCI-H522 lung): 14.2 µM
- GI50 (SK-MEL-5 melanoma): 2.4 µM
- TGI (SK-MEL-5 melanoma): > 22.4 µM
- GI50 (OVCAR-4 ovarian): 1.89 µM
- TGI (OVCAR-4 ovarian): 17.8 µM
- GI50 (NCI-H23 lung): 1.34 µM
- TGI (NCI-H23 lung): 13.9 µM
- GI50 (EKVX NSCLC): 2.88 µM
- TGI (EKVX NSCLC): > 49.8 µM
- GI50 (HL-60(TB) leukemia): 3.7 µM
- TGI (HL-60(TB) leukemia): 23.5 µM
- GI50 (U251 CNS): 0.685 µM
- TGI (U251 CNS): > 85.1 µM
- GI50 (HCT-116 colon): 0.428 µM
- TGI (HCT-116 colon): 13.6 µM
- GI50 (UO-31 renal): 0.902 µM
- TGI (UO-31 renal): 43.6 µM
- GI50 (SNB-19 CNS): > 63.5 µM
- TGI (SNB-19 CNS): > 100 µM
- GI50 (NCI-H460 lung): 0.311 µM
- TGI (NCI-H460 lung): 15.5 µM
- GI50 (ACHN renal): 0.609 µM
- TGI (ACHN renal): 23.8 µM
- GI50 (MDA-MB-435): 1.67 µM
- TGI (MDA-MB-435): > 57.1 µM
- GI50 (K-562 leukemia): 0.279 µM
- TGI (K-562 leukemia): > 90.5 µM
- GI50 (A549 NSCLC): 4.27 µM
- TGI (A549 NSCLC): > 100 µM
- GI50 (M14 melanoma): 0.456 µM
- TGI (M14 melanoma): 8.15 µM
- GI50 (SNB-75 CNS): 0.886 µM
- TGI (SNB-75 CNS): > 100 µM
- GI50 (A498 renal): 2.28 µM
- TGI (A498 renal): 14 µM
- GI50 (NCI-H226 lung): 2.2 µM
- TGI (NCI-H226 lung): 29 µM
- GI50 (SK-OV-3 ovarian): 0.651 µM
- TGI (SK-OV-3 ovarian): 14.5 µM
- GI50 (SN12C renal): 1.48 µM
- TGI (SN12C renal): 21.8 µM
- GI50 (SR leukemia): 0.113 µM
- TGI (SR leukemia): > 41.2 µM
- GI50 (HCC-2998 colon): 0.777 µM
- TGI (HCC-2998 colon): 3.49 µM
- GI50 (OVCAR-3 ovarian): 2.17 µM
- TGI (OVCAR-3 ovarian): 24.6 µM
- GI50 (LOX IMVI melanoma): 0.221 µM
- TGI (LOX IMVI melanoma): 2.76 µM
- GI50 (MOLT-4 leukemia): 0.325 µM
- TGI (MOLT-4 leukemia): > 37.5 µM
- GI50 (TK-10 renal): 2.42 µM
- TGI (TK-10 renal): > 37.2 µM
- GI50 (BT-549 breast): 1.6 µM
- TGI (BT-549 breast): 18.6 µM
- GI50 (PC-3 prostate): 3.24 µM
- TGI (PC-3 prostate): 26.6 µM
- GI50 (SK-MEL-2 melanoma): 0.393 µM
- TGI (SK-MEL-2 melanoma): 8.81 µM
- GI50 (MCF7 breast): 0.373 µM
- TGI (MCF7 breast): 13.6 µM
- GI50 (COLO 205 colon): 2.59 µM
- TGI (COLO 205 colon): 14.4 µM
- GI50 (SF-268 CNS): 0.938 µM
- TGI (SF-268 CNS): 21.3 µM
- GI50 (KM12 colon): 2.89 µM
- TGI (KM12 colon): > 64.1 µM
- GI50 (RPMI-8226 leukemia): 0.278 µM
- TGI (RPMI-8226 leukemia): 15.2 µM
- GI50 (CAKI-1 renal): 0.669 µM
- TGI (CAKI-1 renal): > 100 µM
- GI50 (MALME-3M melanoma): 9.8 µM
- TGI (MALME-3M melanoma): > 42.1 µM
- GI50 (OVCAR-5 ovarian): 1.07 µM
- TGI (OVCAR-5 ovarian): 13.1 µM
- GI50 (HOP-92 NSCLC): 0.514 µM
- TGI (HOP-92 NSCLC): 18.1 µM
- GI50 (SF-539 CNS): 0.738 µM
- TGI (SF-539 CNS): > 37.2 µM
- GI50 (HS 578T breast): 7.89 µM
- TGI (HS 578T breast): 46.3 µM
- GI50 (SK-MEL-28 melanoma): 11.7 µM
- TGI (SK-MEL-28 melanoma): 26.6 µM
- GI50 (OVCAR-8 ovarian): 0.794 µM
- TGI (OVCAR-8 ovarian): > 46 µM
- TGI (UACC-257 melanoma): > 44.8 µM
- GI50 (CCRF-CEM leukemia): 0.198 µM
- TGI (CCRF-CEM leukemia): 6.65 µM
